Measured values reported in patent US8415482B2, “Proline derivatives” (National Health Research Institutes, priority 2009, dated 2013).

These compounds were tested on HCV replication (assay: Inhibiting HCV replication, Ava5-EG(Δ4AB)SEAP reporter-based cell line, SEAP activity). Conditions: Hepatitis C virus, 72 h, Ava5-EG(Δ4AB)SEAP cells; 48 hours + additional 24 hours treatment; SEAP activity in culture medium; read-out: EC50 values (i.e., the concentration of a test compound at which 50% HCV replication is inhibited).
Method: The inhibitory activity of compounds of this invention against HCV replication was assessed using Ava5-EG(Δ4AB)SEAP, a reporter-based cell line, according to the methods described in Lee et al., Anal. Biochem., 316:162-70 (2003) and Lee et al., J. Virol Methods, 116:27-33 (2004). Briefly, Ava5-EG(Δ4AB)SEAP cells were cultured in a medium containing 500 μg/mL G418 (geneticin) and 10 μg/mL blasticidin in a 5% CO2 incubator. G418 and blasticidin were purchased from Invitrogen (Carlsbad, Calif.). The cells were seeded in a 96-well plate (5×10^3 cells/100 μL-well) and incubated at 37° C. for 24 hours. They were then treated with a solution of a test compound in DMSO at various concentrations. After 48 hours, the culture medium in each well was replaced with a fresh medium containing the test compound at the same concentrations to remove secreted alkaline phosphatase (SEAP) accumulated in the culture medium, if any. The cells were cultured for additional 24 hours. The culture medium was then collected and tested for SEAP activity using a Phospha-Light assay kit (Tropix, Foster, Calif., USA).

Compound | EC50 [nM]
CC(C)(C)OC(=O)N[C@@H](C(=O)N1CCC[C@H]1c1ncc(-c2ccc(-c3ccc(-c4cnc([C@@H]5CCCN5C(=O)[C@H](NC(=O)OC(C)(C)C)c5ccccc5)s4)cc3)cc2)s1)c1ccccc1 [Compound 6a, di-tert-butyl (1R,1′R)-2,2′-((2S,2′S)-2,2′-(5,5′-(biphenyl-4,4′-diyl)bis(thiazole-5,2-diyl))bis(pyrro-lidine-2,1-diyl))bis(2-oxo-1-phenylethane-2,1-diyl)dicarbamate] | ≤ 500
O=C(N[C@@H](C(=O)N1CCC[C@H]1c1ncc(-c2ccc(-c3ccc(-c4cnc([C@@H]5CCCN5C(=O)[C@H](NC(=O)C5CC5)c5ccccc5)s4)cc3)cc2)s1)c1ccccc1)C1CC1 [Compound 7a-A, N,N′-(1R,1′R)-2,2′-((2S,2′S)-2,2′-(5,5′-(biphenyl-4,4′-diyl)bis(thiazole-5,2-diyl))bis(pyrrolidine-2,1-diyl))bis(2-oxo-1-phenylethane-2,1-diyl)dicyclopropanecarboxamide] | ≤ 500
O=C(N[C@@H](C(=O)N1CCC[C@H]1c1ncc(-c2ccc(-c3ccc(-c4cnc([C@@H]5CCCN5C(=O)[C@H](NC(=O)N5CCOCC5)c5ccccc5)s4)cc3)cc2)s1)c1ccccc1)N1CCOCC1 [Compound 7a-B] | ≤ 500
O=C(N[C@@H](C(=O)N1C[C@H](F)C[C@H]1c1ncc(-c2ccc(-c3ccc(-c4cnc([C@@H]5C[C@@H](F)CN5C(=O)[C@H](NC(=O)C5CC5)c5ccccc5)s4)cc3)cc2)s1)c1ccccc1)C1CC1 [Compound 7b-A] | ≤ 500
O=C(N[C@@H](C(=O)N1C[C@H](F)C[C@H]1c1ncc(-c2ccc(-c3ccc(-c4cnc([C@@H]5C[C@@H](F)CN5C(=O)[C@H](NC(=O)N5CCOCC5)c5ccccc5)s4)cc3)cc2)s1)c1ccccc1)N1CCOCC1 [Compound 7b-B] | ≤ 500
O=C(N[C@@H](C(=O)N1C[C@@H](F)C[C@H]1c1ncc(-c2ccc(-c3ccc(-c4cnc([C@@H]5C[C@H](F)CN5C(=O)[C@H](NC(=O)C5CC5)c5ccccc5)s4)cc3)cc2)s1)c1ccccc1)C1CC1 [Compound 7c-A] | ≤ 500
O=C(N[C@@H](C(=O)N1C[C@@H](F)C[C@H]1c1ncc(-c2ccc(-c3ccc(-c4cnc([C@@H]5C[C@H](F)CN5C(=O)[C@H](NC(=O)N5CCOCC5)c5ccccc5)s4)cc3)cc2)s1)c1ccccc1)N1CCOCC1 [Compound 7c-B] | ≤ 500
CC(C)(C)OC(=O)N[C@@H](C(=O)N1CCC[C@H]1c1nc(-c2ccc(-c3ccc(-c4noc([C@@H]5CCCN5C(=O)[C@H](NC(=O)OC(C)(C)C)c5ccccc5)n4)cc3)cc2)c[nH]1)c1ccccc1 [Compound 25a] | ≤ 500
O=C(N[C@@H](C(=O)N1CCC[C@H]1c1nc(-c2ccc(-c3ccc(-c4noc([C@@H]5CCCN5C(=O)[C@H](NC(=O)C5CC5)c5ccccc5)n4)cc3)cc2)c[nH]1)c1ccccc1)C1CC1 [Compound 26a] | ≤ 500
CC(C)(C)OC(=O)N[C@@H](C(=O)N1CCC[C@H]1c1nc(-c2ccc(-c3ccc(-c4csc([C@@H]5CCCN5C(=O)[C@H](NC(=O)OC(C)(C)C)c5ccccc5)n4)cc3)cc2)no1)c1ccccc1 [Compound 29a] | ≤ 500
O=C(N[C@@H](C(=O)N1CCC[C@H]1c1nc(-c2ccc(-c3ccc(-c4csc([C@@H]5CCCN5C(=O)[C@H](NC(=O)C5CC5)c5ccccc5)n4)cc3)cc2)no1)c1ccccc1)C1CC1 [Compound 30a] | ≤ 500
CC(C)(C)OC(=O)N[C@@H](C(=O)N1CCC[C@H]1c1nc(-c2ccc(-c3ccc(-c4cnc([C@@H]5CCCN5C(=O)[C@H](NC(=O)OC(C)(C)C)c5ccccc5)s4)cc3)cc2)no1)c1ccccc1 [Compound 33a] | ≤ 500
O=C(N[C@@H](C(=O)N1CCC[C@H]1c1nc(-c2ccc(-c3ccc(-c4cnc([C@@H]5CCCN5C(=O)[C@H](NC(=O)C5CC5)c5ccccc5)s4)cc3)cc2)no1)c1ccccc1)C1CC1 [Compound 34a] | ≤ 500
CC(C)(C)OC(=O)N[C@@H](C(=O)N1CCC[C@H]1c1ncc(-c2ccc(-c3ccc(-c4csc([C@@H]5CCCN5C(=O)[C@H](NC(=O)OC(C)(C)C)c5ccccc5)n4)cc3)cc2)[nH]1)c1ccccc1 [Compound 37a] | ≤ 500
O=C(N[C@@H](C(=O)N1CCC[C@H]1c1ncc(-c2ccc(-c3ccc(-c4csc([C@@H]5CCCN5C(=O)[C@H](NC(=O)C5CC5)c5ccccc5)n4)cc3)cc2)[nH]1)c1ccccc1)C1CC1 [Compound 38a] | ≤ 500
CC(C)(C)OC(=O)N[C@@H](C(=O)N1CCC[C@H]1c1ncc(-c2ccc(-c3ccc(-c4cnc([C@@H]5CCCN5C(=O)[C@H](NC(=O)OC(C)(C)C)c5ccccc5)s4)cc3)cc2)[nH]1)c1ccccc1 [Compound 41a] | ≤ 500
O=C(N[C@@H](C(=O)N1CCC[C@H]1c1ncc(-c2ccc(-c3ccc(-c4cnc([C@@H]5CCCN5C(=O)[C@H](NC(=O)C5CC5)c5ccccc5)s4)cc3)cc2)[nH]1)c1ccccc1)C1CC1 [Compound 42a, N—((R)-2-((S)-2-(5-(4′-(2-((S)-1-((R)-2-(cyclopropanecarboxamido)-2-phenylacetyl)pyrrolidin-2-yl)-1H-imidazol-4-yl)biphenyl-4-yl)thiazol-2-yl)pyrrolidin-1-yl)-2-oxo-1-phenyl-ethyl)cyclopropanecarboxamide] | ≤ 500
CC(C)(C)OC(=O)N[C@@H](C(=O)N1CCC[C@H]1c1nc(-c2ccc(-c3ccc(-c4cnc([C@@H]5CCCN5C(=O)[C@H](NC(=O)OC(C)(C)C)c5ccccc5)s4)cc3)cc2)cs1)c1ccccc1 [Compound 45a] | ≤ 500
O=C(N[C@@H](C(=O)N1CCC[C@H]1c1nc(-c2ccc(-c3ccc(-c4cnc([C@@H]5CCCN5C(=O)[C@H](NC(=O)C5CC5)c5ccccc5)s4)cc3)cc2)cs1)c1ccccc1)C1CC1 [Compound 46a] | ≤ 500
CC(=O)N[C@H](C(=O)N1CCC[C@H]1c1ncc(-c2ccc(-c3ccc(-c4cnc([C@@H]5CCCN5C(=O)[C@H](NC(C)=O)c5ccccc5)s4)cc3)cc2)s1)c1ccccc1 [Compound 51a] | ≤ 500
CCCCCC(=O)N[C@@H](C(=O)N1CCC[C@H]1c1ncc(-c2ccc(-c3ccc(-c4cnc([C@@H]5CCCN5C(=O)[C@H](NC(=O)CCCCC)c5ccccc5)s4)cc3)cc2)s1)c1ccccc1 [Compound 58a] | ≤ 500
CC(C)C(=O)N[C@H](C(=O)N1CCC[C@H]1c1ncc(-c2ccc(-c3ccc(-c4cnc([C@@H]5CCCN5C(=O)[C@H](NC(=O)C(C)C)c5ccccc5)s4)cc3)cc2)s1)c1ccccc1 [Compound 61a] | ≤ 500
O=C(N[C@H](C(=O)N1CCC[C@H]1c1ncc(-c2ccc(-c3ccc(-c4cnc([C@@H]5CCCN5C(=O)[C@H](NC(=O)C5CCC5)c5ccccc5)s4)cc3)cc2)s1)c1ccccc1)C1CCC1 [Compound 67a] | ≤ 500
O=C(N[C@@H](C(=O)N1CCC[C@H]1c1ncc(-c2ccc(-c3ccc(-c4cnc([C@@H]5CCCN5C(=O)[C@H](NC(=O)C5CCCCC5)c5ccccc5)s4)cc3)cc2)s1)c1ccccc1)C1CCCCC1 [Compound 70a] | ≤ 500
O=C(Cc1ccccc1)N[C@@H](C(=O)N1CCC[C@H]1c1ncc(-c2ccc(-c3ccc(-c4cnc([C@@H]5CCCN5C(=O)[C@H](NC(=O)Cc5ccccc5)c5ccccc5)s4)cc3)cc2)s1)c1ccccc1 [Compound 74a] | ≤ 500
O=C(N[C@@H](C(=O)N1CCC[C@H]1c1ncc(-c2ccc(-c3ccc(-c4cnc([C@@H]5CCCN5C(=O)[C@H](NC(=O)c5ccco5)c5ccccc5)s4)cc3)cc2)s1)c1ccccc1)c1ccco1 [Compound 76a] | ≤ 500
O=C(N[C@@H](C(=O)N1CCC[C@H]1c1ncc(-c2ccc(-c3ccc(-c4cnc([C@@H]5CCCN5C(=O)[C@H](NC(=O)c5ccncc5)c5ccccc5)s4)cc3)cc2)s1)c1ccccc1)c1ccncc1 [Compound 84a] | ≤ 500
